One assay concerns the target T1, cdk2/cyclin E (Homo sapiens, UniProt P24941).
T1 construct: made in house; host or cells: insect cells (baculovirus co-infection)
Put plainly: Cyclin-Dependent Kinase 2 Assay (cdk2/cyclin E, GST-Rb substrate). The format is biochemical. Conditions: recombinant cdk2/cyclin E, 10 μM ATP, 30 min at 30° C., several values in a cell = separate determinations, read-out: CDK-2 Inhibition IC50. How it is done:
Substrate: GST-Rb as described above for cdk4/cyclin D1
Assay conditions for cdk2/cyclin E were identical to those for cdk4/cyclin D1 including the substrate. The concentration of recombinant cdk2/cyclin E in the assay was 0.1 μg per 100 μl assay. Incubation was for 30 min at 30° C.

The target in a further assay is T2, cdk4/cyclin D1 (Homo sapiens, UniProt P11802).
T2 construct: made in house; host or cells: Sf9 insect cells (Bac-to-Bac baculovirus, pFastBac)
Put plainly: Cyclin-dependent Kinase 4 Assay (cdk4/cyclin D1, GST-Rb substrate). The format is biochemical. Conditions: cdk4/cyclin D1 insect cell lysate, 10 μM ATP, 30 min at 37° C., several values = separate determinations, read-out: CDK4 Inhibition IC50. Put shortly: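 IC50 against cdk4 measured by scintillation counting of bead-bound GST-Rb (0.5 μg) after filtration and four TNEN washes. Reaction was 30 min at 37 °C in HEPES pH 7.5 buffer with 10 mM MgCl2 and 1 mM EGTA. Enzyme source was 0.1 μg Sf9 lysate coinfected with cdk4 and cyclin D1.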

The next assay concerns MDA-MB-231. Put plainly: In vitro tumor cell proliferation, MDA-MB-231. Conditions: sulforhodamine B or CyQUANT assay, many values given with an undefined *, read-out: In vitro Tumor Cell Proliferation (IC50, μM) Breast MDA-MB-231. The format is cell-based, human. Put shortly:
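Proliferation quantified by SRB staining of TCA-fixed cells after 3 days of drug plus 4 days with replenished drug, following overnight attachment at 37 °C.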

A further assay concerns MDA-MB-435. Put plainly: In vitro tumor cell proliferation, MDA-MB-435. The assay is classed as cell-based. Conditions: values given with an undefined *, read-out: In vitro Tumor Cell Proliferation (IC50, μM) Breast MDA-MB-435. A digest of the protocol:
(§1)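 Tumor cells were seeded overnight at 37° C, then exposed to drug diluted in culture medium for 3 days, refed with fresh drug-containing medium and kept 4 more days. Cells were fixed with 10% trichloroacetic acid and stained with 0.4% sulforhodamine B; alternatively, CyQUANT read proliferation after 3 days' drug exposure.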

For the next assay, the system named is HT-29. Put plainly: In vitro tumor cell proliferation, HT-29. The format is cell-based, human. Conditions: many values given with an undefined *, read-out: In vitro Tumor Cell Proliferation (IC50, μM) Colon HT-29. Put shortly: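 Growth was quantified either with CyQUANT, plates frozen at −80° C after 3 days of drug, or by sulforhodamine B staining of TCA-fixed cells after 3 days of drug plus 4 days with fresh drug. Trypan blue-excluding HT-29 cells were plated overnight at 37° C before dosing.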

For the next assay, the system named is Colo-205. Put plainly: In vitro tumor cell proliferation, Colo-205. The format is cell-based. Conditions: values given with an undefined *, read-out: In vitro Tumor Cell Proliferation (IC50, μM) Colon Colo-205. A digest of the protocol:
as §1

In another assay the test system is A549. Put plainly: In vitro tumor cell proliferation, A549. The assay is classed as cell-based, human. Conditions: many values given with an undefined *, read-out: In vitro Tumor Cell Proliferation (IC50, μM) Lung A549. Put shortly:
as §1

Another assay has as its system DMS-114. Briefly: In vitro tumor cell proliferation, DMS-114. The format is cell-based, human. Conditions: many values given with an undefined *, read-out: In vitro Tumor Cell Proliferation (IC50, μM) Lung DMS-114. A digest of the protocol: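 Human small cell lung carcinoma DMS-114 cells plated overnight, then drug-treated for 3 days, medium and drug renewed, and incubated 4 more days. Growth read by sulforhodamine B staining after TCA fixation; alternatively by CyQUANT after 3 days' drug exposure and freezing at −80 °C.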

A further assay has as its system PC-3. Briefly: In vitro tumor cell proliferation, PC-3. The assay is classed as cell-based, human. The following applies: many values given with an undefined *, read-out: In vitro Tumor Cell Proliferation (IC50, μM) Prostate PC-3. Put shortly: as §1
Another assay has as its system DU145. Briefly: In vitro tumor cell proliferation, DU145. The assay is classed as cell-based, human. Conditions: many values given with an undefined *, read-out: In vitro Tumor Cell Proliferation (IC50, μM) Prostate DU145. Put shortly: as §1
The mark [1] stands for this setting: Homo sapiens, MDA-MB-231, MDA-MB-231.
[2] abbreviates: Homo sapiens, COLO 205, Colo-205.
Setting [3] is: Homo sapiens, MDA-MB-435, MDA-MB-435.

“And” between values parts separate entries of the source, which are not always exact repeats. Equal values may be shown once. Where a name gives a salt, the structure may show the parent alone. Read-outs that look alike come from different tables or passages of the source.

These results are taken from US6479487B1, “6, 9-disubstituted 2-[trans-(4-aminocyclohexyl)amino] purines” (Aventis Pharmaceuticals Inc., priority 1998, dated 2002).

T2 sequence (P11802 whole entry): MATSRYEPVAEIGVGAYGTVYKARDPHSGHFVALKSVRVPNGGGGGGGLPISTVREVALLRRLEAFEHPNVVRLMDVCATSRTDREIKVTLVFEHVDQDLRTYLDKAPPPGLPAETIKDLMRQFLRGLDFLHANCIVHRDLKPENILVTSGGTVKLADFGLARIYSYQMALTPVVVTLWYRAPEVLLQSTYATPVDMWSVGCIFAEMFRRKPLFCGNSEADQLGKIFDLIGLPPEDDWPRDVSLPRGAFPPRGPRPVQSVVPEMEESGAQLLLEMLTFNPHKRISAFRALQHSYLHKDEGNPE
T2 sequence (P24385 whole entry partner): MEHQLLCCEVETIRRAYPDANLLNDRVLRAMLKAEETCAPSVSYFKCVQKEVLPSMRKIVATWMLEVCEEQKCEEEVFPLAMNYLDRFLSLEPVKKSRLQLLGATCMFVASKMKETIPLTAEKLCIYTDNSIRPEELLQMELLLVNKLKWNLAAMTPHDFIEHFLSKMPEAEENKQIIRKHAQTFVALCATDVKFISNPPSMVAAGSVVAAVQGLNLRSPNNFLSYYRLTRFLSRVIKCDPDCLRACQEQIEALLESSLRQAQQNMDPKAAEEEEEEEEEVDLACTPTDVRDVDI

Turning to `CCN(CC)CCNc1nc(N[C@H]2CC[C@H](N)CC2)nc2c1ncn2C1CCCC1` [Example 6, 2-[Trans-(4-aminocyclohexyl)amino]-6-[2-(diethylamino)ethylamino]-9-cyclopentylpurine trihydrochloride], the IC50 on cdk2/cyclin E is 690 nM; at cdk4/cyclin D1, 300 nM and 700 nM; in the assay on MDA-MB-231 (setting [1]) it was 6.2 µM; with MDA-MB-231 (MDA-MB-231, trihydrochloride), 6.4 µM; with MDA-MB-435 (MDA-MB-435, trihydrochloride) it was 11 µM; in the assay with HT-29 (HT-29, trihydrochloride), 7.7 µM. Moreover, the IC50 in the assay on Colo-205 (Colo-205, trihydrochloride) stood at 4.7 µM; in the assay on Colo-205 (setting [2]) it was 5.4 µM; in the assay on A549 (Homo sapiens, A549, A549), 7.2 µM; in the assay with DMS-114 (DMS-114, trihydrochloride), 9.6 µM; with DMS-114 (Homo sapiens, DMS-114, DMS-114), 6.3 µM; in the assay with PC-3 (Homo sapiens, PC-3, PC-3), 6.4 µM. For the same molecule, the IC50 in the assay on PC-3 (PC-3, trihydrochloride) stood at 8.2 µM; with DU145 (DU145, trihydrochloride), 7.9 µM; in the assay on DU145 (Homo sapiens, DU-145, DU145), 7.8 µM.

With `N[C@H]1CC[C@H](Nc2nc(NCc3cccc4ccccc34)c3ncn(C4CCCC4)c3n2)CC1` [Example 7, 2-[Trans-(4-aminocyclohexyl)amino]-6-[(1-napthyl)methylamino]-9-cyclopentylpurine dihydrochloride], the IC50 on cdk2/cyclin E was 160 nM; on cdk4/cyclin D1 it was 1400 nM; in the assay with MDA-MB-231 (setting [1]), 4.4 µM; in the assay with MDA-MB-231 (MDA-MB-231, dihydrochloride), 4.9 µM; with MDA-MB-435 (setting [3]), 11 µM; with MDA-MB-435 (MDA-MB-435, dihydrochloride), 10 µM. Also, the IC50 in the assay on HT-29 (HT-29, dihydrochloride) turned out to be 4.8 µM; in the assay with HT-29 (Homo sapiens, HT-29, HT-29) it was 4.6 µM; in the assay on Colo-205 (Colo-205, dihydrochloride) it was 3.5 µM; with Colo-205 (setting [2]), 3.4 µM; in the assay on A549 (Homo sapiens, A549, A549), 3.4 µM; in the assay with DMS-114 (DMS-114, dihydrochloride) it was 3.3 µM. Besides, the IC50 in the assay on DMS-114 (Homo sapiens, DMS-114, DMS-114) stood at 2.8 µM; in the assay with PC-3 (Homo sapiens, PC-3, PC-3), 4.2 µM; in the assay on PC-3 (PC-3, dihydrochloride) it was 4.8 µM; in the assay with DU145 (DU145, dihydrochloride), 5.2 µM; in the assay with DU145 (Homo sapiens, DU-145, DU145), 5.5 µM.

Consider `COc1ccc2[nH]cc(CCNc3nc(N[C@H]4CC[C@H](N)CC4)nc4c3ncn4C3CCCC3)c2c1` [Example 9, 2-[Trans-(4-aminocyclohexyl)amino]-6-[(3-(5-methoxyindolyl))-2-ethylamino]-9-cyclopentylpurine dihydrochloride], for which the IC50 on cdk2/cyclin E was 165 nM; on cdk4/cyclin D1, 3900 nM and 2000 nM; in the assay on MDA-MB-231 (setting [1]) it was 0.7 µM; in the assay with MDA-MB-231 (MDA-MB-231, dihydrochloride) it was 1.1 µM; in the assay with MDA-MB-435 (setting [3]) it was > 10 µM; with HT-29 (HT-29, dihydrochloride) it was 0.96 µM. The IC50 in the assay on HT-29 (Homo sapiens, HT-29, HT-29) worked out at 0.87 µM; with Colo-205 (Colo-205, dihydrochloride), 0.94 µM; with Colo-205 (setting [2]) it was 0.76 µM; in the assay with A549 (A549, dihydrochloride) it was 2 µM; with A549 (Homo sapiens, A549, A549), 1.2 µM; in the assay on DMS-114 (DMS-114, dihydrochloride) it was 1.4 µM. For the same molecule, the IC50 in the assay with DMS-114 (Homo sapiens, DMS-114, DMS-114) was determined as 1 µM; in the assay with PC-3 (Homo sapiens, PC-3, PC-3), 0.41 µM; with PC-3 (PC-3, dihydrochloride), 0.28 µM; in the assay with DU145 (DU145, dihydrochloride), 4 µM; with DU145 (Homo sapiens, DU-145, DU145), 3.5 µM.

Take `N[C@H]1CC[C@H](Nc2nc(NNc3ccccc3F)c3ncn(C4CCCC4)c3n2)CC1` [Example 11, 2-[Trans-(4-aminocyclohexyl)amino]-6-[2-fluorophenylhydrazino]-9-cyclopentylpurine dihydrochloride]: the IC50 at cdk2/cyclin E is 100 nM; on cdk4/cyclin D1, 8900 nM and 5800 nM; in the assay with MDA-MB-231 (setting [1]) it was 5 µM; with MDA-MB-231 (MDA-MB-231, dihydrochloride), 6.7 µM; in the assay on MDA-MB-435 (MDA-MB-435, dihydrochloride) it was 10 µM; with HT-29 (HT-29, dihydrochloride), 7.8 µM. The IC50 in the assay with HT-29 (Homo sapiens, HT-29, HT-29) was found to be 6.5 µM; with Colo-205 (Colo-205, dihydrochloride) it was 5.2 µM; in the assay with Colo-205 (setting [2]), 6.5 µM; in the assay with A549 (A549, dihydrochloride) it was 3.4 µM; in the assay with A549 (Homo sapiens, A549, A549), 4.5 µM; in the assay with DMS-114 (DMS-114, dihydrochloride), 4.9 µM. The IC50 in the assay with DMS-114 (Homo sapiens, DMS-114, DMS-114) is 6.8 µM; in the assay on PC-3 (Homo sapiens, PC-3, PC-3), 3.6 µM; in the assay on DU145 (DU145, dihydrochloride) it was 4.7 µM; in the assay with DU145 (Homo sapiens, DU-145, DU145), 4.6 µM.

As for `N[C@H]1CC[C@H](Nc2nc(Nc3cccc(F)c3)c3ncn(C4CCCC4)c3n2)CC1` [Example 21, 2-[Trans-(4-aminocyclohexyl)amino]-6-(3-fluorophenylamino)-9-cyclopentylpurine dihydrochloride], the IC50 was 82 nM and 80 nM on cdk2/cyclin E; 230 nM and 970 nM at cdk4/cyclin D1; 1.3 µM in the assay with MDA-MB-231 (setting [1]); 1.9 µM in the assay on MDA-MB-435 (setting [3]); 2.3 µM in the assay on MDA-MB-435 (MDA-MB-435, dihydrochloride); 1.7 µM with HT-29 (HT-29, dihydrochloride). For the same molecule, the IC50 is 1.6 µM in the assay with HT-29 (Homo sapiens, HT-29, HT-29); 1.1 µM with Colo-205 (Colo-205, dihydrochloride); 1.2 µM with Colo-205 (setting [2]); 1 µM in the assay on A549 (A549, dihydrochloride); 0.6 µM in the assay on A549 (Homo sapiens, A549, A549); 0.7 µM with DMS-114 (DMS-114, dihydrochloride). Further, the IC50 in the assay with DMS-114 (Homo sapiens, DMS-114, DMS-114) was 1.1 µM; in the assay on PC-3 (Homo sapiens, PC-3, PC-3), 1.3 µM; in the assay with PC-3 (PC-3, dihydrochloride), 0.7 µM; in the assay with DU145 (DU145, dihydrochloride), 0.9 µM; in the assay on DU145 (Homo sapiens, DU-145, DU145), 0.7 µM.

As for `CCCCCc1ccc(Nc2nc(N[C@H]3CC[C@H](N)CC3)nc3c2ncn3C2CCCC2)cc1` [Example 23, 2-[Trans-(4-aminocyclohexyl)amino]-6-[(4-pentyl)phenylamino]-9-cyclopentylpurine dihydrochloride], the IC50 at cdk2/cyclin E was 2000 nM and 950 nM and 760 nM; on cdk4/cyclin D1, 4000 nM; with MDA-MB-231 (setting [1]), 2.7 µM; with MDA-MB-231 (MDA-MB-231, dihydrochloride), 2.6 µM and 2.5 µM; with MDA-MB-435 (setting [3]) it was 3.1 µM; in the assay on MDA-MB-435 (MDA-MB-435, dihydrochloride), 3.5 µM and 3 µM and 3.3 µM. The IC50 was 2.4 µM and 2.3 µM with HT-29 (HT-29, dihydrochloride); 2.5 µM with HT-29 (Homo sapiens, HT-29, HT-29); 2.8 µM and 2.7 µM in the assay on Colo-205 (Colo-205, dihydrochloride); 2.9 µM with Colo-205 (setting [2]); 2.5 µM with A549 (A549, dihydrochloride); 2.3 µM in the assay with A549 (Homo sapiens, A549, A549). Moreover, the IC50 is 2.1 µM in the assay with DMS-114 (DMS-114, dihydrochloride); 2.6 µM in the assay on DMS-114 (Homo sapiens, DMS-114, DMS-114); 3.1 µM in the assay on PC-3 (Homo sapiens, PC-3, PC-3); 2.7 µM and 2.5 µM and 2.2 µM in the assay on PC-3 (PC-3, dihydrochloride); 3.2 µM and 3 µM in the assay on DU145 (DU145, dihydrochloride); 3.1 µM with DU145 (Homo sapiens, DU-145, DU145).
